Four molecules from ChEMBL document CHEMBL1201862, “PubChem BioAssay data set” (2004) can be followed below.

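How tested: cells in 96-well plates exposed to compound for 48 hours at five concentrations. GI50: concentration for 50% inhibition of growth.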 Activity calls are given as the source filed them. Rule as the data show it: active = GI50 up to about 1.1 µM and inactive = higher. Some results are limits rather than exact numbers.

Test in all cases: growth of human tumour cells (NCI), 48 h
The subject of test [1] is A549.
For test [2], the system named is ACHN.
The subject of test [3] is CAKI-1.
The subject of test [4] is COLO 205.
Test [5] concerns HCT-116.
Test [6] has as its system HCT-15.
Test [7] concerns Hs-578T.
Test [8] deals with IGROV-1.
Test [9] concerns MDA-N.
Test [10] concerns NCI-H522.
Test [11] relates to NCI/ADR-RES.
The test system of test [12] is OVCAR-3.
For test [13], the system named is OVCAR-5.
The subject of test [14] is OVCAR-8.
In test [15] the test system is PC-3.
The subject of test [16] is RXF 393.
Test [17] concerns SF-539.
Test [18] deals with SK-MEL-2.
The subject of test [19] is T47D.
Test [20] deals with NCI-H460.

On to `O=c1[nH]cnc2c1sc1nc3ccccc3n12`, for which the GI50 in [1] is > 100 µM (inactive); in test [2] it was > 100 µM (inactive); in test [3] it was > 100 µM (inactive); in test [4], > 100 µM (inactive); in test [5], 70.3 µM (inactive); in test [6], 80.9 µM. Besides, the GI50 is 51.6 µM (inactive) in [7]; 63.8 µM (inactive) in test [8]; > 100 µM (inactive) in [9]; > 100 µM (inactive) in test [10]; > 100 µM (inactive) in test [11]; > 100 µM (inactive) in test [12]. Besides, the GI50 in test [13] was > 100 µM (inactive); in [14], > 100 µM (inactive); in test [15], 88.5 µM (inactive); in test [16], 16.3 µM (inactive); in [17], 61.9 µM (inactive); in test [18] it was 55.8 µM (inactive). Besides, in [19], the GI50 is > 100 µM (inactive).

On to `COC(=O)C(/C(=N/N)C(=O)Nc1cccc(O)c1)c1nc2ccccc2nc1O` (stereo unspecified), for which the GI50 in [1] is > 100 µM (inactive); in test [2] it was > 100 µM (inactive); in test [3], > 100 µM (inactive); in test [5], > 100 µM (inactive); in test [6] it was above 100 µM; in test [7] it was > 100 µM (inactive). Moreover, the GI50 in test [8], in test [9], in [20], in test [10], in test [11] and in test [12] was > 100 µM (inactive) throughout. The GI50 in test [13], in [14], in [15], in test [16], in [17] and in test [18] was > 100 µM (inactive) in each case. The GI50 in test [19] is > 100 µM (inactive).

As to `COC(=O)C1c2c(c3ccccc3n2C(=O)OC)CCN2CCC1C(S(=O)(=O)c1ccccc1)C2=O` (stereo unspecified), the GI50 in [1] was > 100 µM (inactive); in [3], > 100 µM (inactive); in test [4], > 100 µM (inactive); in [5], > 100 µM (inactive); in test [6] it was above 100 µM; in test [7], > 100 µM (inactive). Further, the GI50 in test [8] is > 100 µM (inactive); in [9], > 100 µM (inactive); in [20], > 100 µM (inactive); in test [10] it was 89.3 µM (inactive); in [11], > 100 µM (inactive); in [12], > 100 µM (inactive). Besides, the GI50 in [13] is > 100 µM (inactive); in [14] it was > 100 µM (inactive); in test [15], > 100 µM (inactive); in test [16] it was 89.1 µM (inactive); in test [17], > 100 µM (inactive); in [18], > 100 µM (inactive). Further, in test [19], the GI50 is > 100 µM (inactive).

For the molecule `O=[N+]([O-])c1ccc(C(=S)Nc2ccccc2)o1`, the GI50 in test [1] is 6.55 µM (inactive); in [2] it was 2.36 µM (inactive); in test [3] it was 4.11 µM (inactive); in test [5], 1.81 µM (inactive); in test [6] it was 2.07 µM; in [7], 3.71 µM (inactive). Besides, the GI50 in test [8] was 6.1 µM (inactive); in test [9], 2.96 µM (inactive); in test [20], 3.19 µM (inactive); in test [10] it was 1.34 µM (inactive); in [11], 2.16 µM (inactive); in test [12], 2.19 µM (inactive). Also, the GI50 in test [13] is 4.54 µM (inactive); in [14], 2.51 µM (inactive); in [15], 1.79 µM (inactive); in test [16], 4.14 µM (inactive); in test [17], 1.58 µM (inactive); in [18], 2.48 µM (inactive). For the same molecule, in test [19], the GI50 was 4.33 µM (inactive).
